US20220228112A1, “MEDIUM FOR CULTURING HEPATOCYTE, METHOD OF PRODUCING HEPATOCYTE, AND HEPATOCYTE” (FUJIFILM Corporation, priority 2019, published 2022)

Tested on: human iPS cell-derived hepatocytes
Assay: P450-Glo CYP3A4 assay, CYP3A4 activity value per cell
Assay type: cell-based
Conditions: FIG. 1C; added to medium that does not contain FBS, EGF and A83-01; culture period of 1 week
Protocol: For the cell culture medium, to a medium obtained by mixing equal amounts of a DMEM/F12 basal medium and an RPMI 1640 basal medium, each of the components was added so that the concentration thereof was to be the following final concentration.
Further, to the above composition, the following components were added in combination to prepare culture media for various hepatocytes,
Using the above-described various media, human iPS cell-derived hepatocytes (FUJIFILM Wako Pure Chemical Corporation, Cat #: C1026) were seeded on a collagen-coated 96-well plate at 1×10^5 cells per well and cultured in an incubator at 37° C. and 5% carbon dioxide gas, and the medium was exchanged every 24 hours. The luminescence intensity by a P450-Glo CYP3A4 assay (Promega Corporation) was measured by using an EnSpire multimode plate reader (PerkinElmer, Inc.) and corrected by the number of cells in the well to calculate the CYP3A4 activity value per cell in the culture period of 1 week.

SMILES: NC(=O)c1cccnc1 [nicotinamide]
- effect on function of hepatocytes (CYP3A4 activity per cell): positive factors for improving the function of hepatocytes
